Experimental data as given in patent US20250122174A1 (Shenzhen Yuanli Shenwan Innovative Medicine Co., Ltd., priority 2022, published 2025).

target: HPK1 (Homo sapiens (Human), UniProt Q92918); assay: HPK1 Inhibition Assay (ADP-Glo kinase assay); type: biochemical; settings: ATP 10 μM
Protocol: A stock solution of 10 mM test compound was prepared in DMSO. The compound was prepared by 5-fold and 10-point serial dilutions with HPK1 kinase assay buffer. The HPK1 kinase assay buffer contained 40 mM Tris, pH 7.5; 20 mM MgCl2, 0.1 mg/ml BSA, and 50 μM DTT. 7.5 ng/μl of Active HPK1 (Promega, V4098) and 0.1 μg/ml MBP substrate protein were added to the reaction system. The final concentration of ATP in the HPK1 kinase reaction system was 10 μM. Serial diluted compounds were transferred to the reaction system and incubated at room temperature for 1 hr. 5 μL of ADP-Glo™ Reagent (Promega, V9101) was added and incubated for 40 min to stop the kinase reaction and deplete the unconsumed ATP. […] The luminescence was measured with a plate-reading luminometer.

Sequence of HPK1 (Q92918 1-346 limits assumed): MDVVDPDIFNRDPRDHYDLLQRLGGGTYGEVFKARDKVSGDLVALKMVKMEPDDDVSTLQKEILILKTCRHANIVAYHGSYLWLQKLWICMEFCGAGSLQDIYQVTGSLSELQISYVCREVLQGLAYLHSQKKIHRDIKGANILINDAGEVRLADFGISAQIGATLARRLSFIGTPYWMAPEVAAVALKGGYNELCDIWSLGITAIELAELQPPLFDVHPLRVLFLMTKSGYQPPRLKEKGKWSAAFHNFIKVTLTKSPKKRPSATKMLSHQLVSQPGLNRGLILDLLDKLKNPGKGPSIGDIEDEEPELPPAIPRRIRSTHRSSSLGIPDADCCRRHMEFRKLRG

**Q.** `CC(C)c1nc2c(N3CC[C@@H](NCCO)C3)c(NC(=O)c3ccc(=O)n(-c4c(F)cccc4F)n3)ccc2n1C` [Example 130, (R)-1-(2,6-difluorophenyl)-N-(4-(3-((2-hydroxyethyl)amino)pyrrolidin-1-yl)-2-isopropyl-1-methyl-1H-benzo[d]imidazol-5-yl)-6-oxo-1,6-dihydropyridazine-3-carboxamide] was tested. Which IC50 did it give?
**A.** The IC50 was < 0.1 µM.

**Q.** For `[2H]C([2H])([2H])C(n1cc2c(N3C[C@H](N)C4(CC4)C3)c(NC(=O)c3ccc(=O)n(-c4c(F)cccc4F)n3)ccc2n1)C([2H])([2H])[2H]` [Example 339], which IC50 is on record?
**A.** The IC50 was < 0.1 µM.

**Q.** Which IC50 does the source give for `CC(C)(C)n1cc2c(N3CCC(N)CC3)c(NC(=O)c3ccc(=O)n(-c4c(F)cccc4F)n3)ccc2n1` [Example 240, N-(4-(4-aminopiperidin-1-yl)-2-(tert-butyl)-2H-indazol-5-yl)-1-(2,6-difluorophenyl)-6-oxo-1,6-dihydropyridazine-3-carboxamide] here?
**A.** The IC50 was < 0.1 µM.

**Q.** Which IC50 does the source give for `COCc1nc2c(N3CC[C@H](N)C3)c(NC(=O)c3ccnc(-c4c(F)cccc4OC)c3F)ccc2n1C` [Example 15, N-{4-[(3S)-3-aminopyrrolidin-1-yl]-2-(methoxymethyl)-1-methyl-1,3-benzodiazol-5-yl}-3-fluoro-2-(2-fluoro-6-methoxyphenyl) pyridine-4-carboxamide] here?
**A.** The IC50 was < 0.1 µM.

**Q.** For `Cc1nc2c(N3CCNCC3)c(NC(=O)c3ccc(=O)n(-c4c(F)cccc4F)n3)ccc2n1C` [Example 71, 1-(2,6-difluorophenyl)-N-(1,2-dimethyl-4-(piperazin-1-yl)-1H-benzo[d]imidazol-5-yl)-6-oxo-1,6-dihydropyridazine-3-carboxamide], which IC50 is on record?
**A.** Its IC50 is < 0.1 µM.

**Q.** Which IC50 does the source give for `CC(C)n1ncc2c(N3C[C@H](N)C(C)(C)C3)c(NC(=O)c3ccc(=O)n(-c4c(F)cccc4F)n3)ccc21` [Example 186, (R)-N-(4-(4-amino-3,3-dimethylpyrrolidin-1-yl)-1-isopropyl-1H-indazol-5-yl)-1-(2,6-difluorophenyl)-6-oxo-1,6-dihydropyridazine-3-carboxamide] here?
**A.** The IC50 was < 0.1 µM.

**Q.** How did the IC50 turn out when `C[C@@H]1CN(c2c(NC(=O)c3ccc(=O)n(-c4c(F)cccc4F)n3)ccc3c2nc(C2(C(F)(F)F)CC2)n3C)C[C@@H]1N` [Example 148, N-(4-((3R,4R)-3-amino-4-methylpyrrolidin-1-yl)-1-methyl-2-(1-(trifluoromethyl)cyclopropyl)-1H-benzo[d]imidazol-5-yl)-1-(2,6-difluorophenyl)-6-oxo-1,6-dihydropyridazine-3-carboxamide] was run?
**A.** Its IC50 is < 0.1 µM.

**Q.** How did the IC50 turn out when `CC(C)c1nc2c(N3C[C@H]4CNC[C@H]4C3)c(NC(=O)c3ccc(=O)n(-c4c(F)cccc4F)n3)ccc2n1C` [Example 137, 1-(2,6-difluorophenyl)-N-(4-((3aR,6aS)-hexahydropyrrolo[3,4-c]pyrrol-2(1H)-yl)-2-isopropyl-1-methyl-1H-benzo[d]imidazol-5-yl)-6-oxo-1,6-dihydropyridazine-3-carboxamide] was run?
**A.** Its IC50 is < 0.1 µM.

**Q.** For `CC(C)(C)n1cc2c(N3C[C@H](N)C4(CC4)C3)c(NC(=O)c3ccc(=O)n(-c4c(F)cccc4F)n3)ccc2n1` [Example 235, (R)-N-(4-(7-amino-5-azaspiro[2.4]heptan-5-yl)-2-(tert-butyl)-2H-indazol-5-yl)-1-(2,6-difluorophenyl)-6-oxo-1,6-dihydropyridazine-3-carboxamide], which IC50 is on record?
**A.** Its IC50 is < 0.1 µM.

**Q.** `CC(C)n1cc2c(N3C[C@@H](N)C(C)(C)C3)c(NC(=O)c3ccc(=O)n(-c4c(F)cccc4F)n3)ccc2n1` [Example 228, (S)-N-(4-(4-amino-3,3-dimethylpyrrolidin-1-yl)-2-isopropyl-2H-indazol-5-yl)-1-(2,6-difluorophenyl)-6-oxo-1,6-dihydropyridazine-3-carboxamide] was tested. Which IC50 did it give?
**A.** The IC50 was < 0.1 µM.

**Q.** How did the IC50 turn out when `CC(C)n1ncc2c(N3CC[C@@](C)(N)C3)c(NC(=O)c3ccc(=O)n(-c4c(F)cccc4F)n3)ccc21` [Example 208, (R)-N-(4-(3-amino-3-methylpyrrolidin-1-yl)-1-isopropyl-1H-indazol-5-yl)-1-(2,6-difluorophenyl)-6-oxo-1,6-dihydropyridazine-3-carboxamide] was run?
**A.** Its IC50 is < 0.1 µM.

**Q.** `Cc1nc2c(N3CC[C@](C)(N)C3)c(NC(=O)c3ccc(=O)n(-c4c(F)cccc4F)n3)ccc2n1C` [Example 77, (S)-N-(4-(3-amino-3-methylpyrrolidin-1-yl)-1,2-dimethyl-1H-benzo[d]imidazol-5-yl)-1-(2,6-difluorophenyl)-6-oxo-1,6-dihydropyridazine-3-carboxamide] was tested. Which IC50 did it give?
**A.** Its IC50 is < 0.1 µM.

**Q.** `COc1ccc(Cl)c(F)c1-c1nccc(C(=O)Nc2cc(F)ccc2N2C[C@H]3C[C@@H]2CN3)c1F` [Example 4, N-(2-((1R,4R)-2,5-diazabicyclo[2.2.1]heptan-2-yl)-5-fluorophenyl)-2-(3-chloro-2-fluoro-6-methoxyphenyl)-3-fluoroisonicotinamide] was tested. Which IC50 did it give?
**A.** The IC50 was 0.1 to 1 µM.

**Q.** Which IC50 does the source give for `CC1(C)CN(c2c(NC(=O)c3ccc(=O)n(-c4c(F)cccc4F)n3)ccc3nn(C4CC4)cc23)C[C@@H]1N` [Example 334, (R)-N-(4-(4-amino-3,3-dimethylpyrrolidin-1-yl)-2-cyclopropyl-2H-indazol-5-yl)-1-(2,6-difluorophenyl)-6-oxo-1,6-dihydropyridazine-3-carboxamide] here?
**A.** The IC50 was < 0.1 µM.

**Q.** For `C[C@]1(N)CCN(c2cc(-c3cnccc3C#N)ccc2NC(=O)c2ccc(=O)n(-c3c(F)cccc3F)n2)C1` [Example 348, (S)-N-(2-(3-amino-3-methylpyrrolidin-1-yl)-4-(4-cyanopyridin-3-yl)phenyl)-1-(2,6-difluorophenyl)-6-oxo-1,6-dihydropyridazine-3-carboxamide], which IC50 is on record?
**A.** Its IC50 is < 0.1 µM.

**Q.** `N[C@H]1CN(c2c(NC(=O)c3ccc(=O)n(-c4c(F)cccc4F)n3)ccc3c2cnn3C2CC2)CC12CC2` [Example 300, (R)-N-(4-(7-amino-5-azaspiro[2.4]heptan-5-yl)-1-cyclopropyl-1H-indazol-5-yl)-1-(2,6-difluorophenyl)-6-oxo-1,6-dihydropyridazine-3-carboxamide] was tested. Which IC50 did it give?
**A.** Its IC50 is < 0.1 µM.

**Q.** Which IC50 does the source give for `Cn1cc2c(N3CCC[C@@H](N)C3)c(NC(=O)c3ccc(=O)n(-c4c(F)cccc4F)n3)ccc2n1` [Example 176, (R)-N-(4-(3-aminopiperidin-1-yl)-2-methyl-2H-indazol-5-yl)-1-(2,6-difluorophenyl)-6-oxo-1,6-dihydropyridazine-3-carboxamide] here?
**A.** The IC50 was < 0.1 µM.

**Q.** How did the IC50 turn out when `COc1cccc(F)c1-n1nc(C(=O)Nc2ccc3c(nc(C)n3C)c2N2CC[C@H](N)C2)ccc1=O` [Example 66, (S)—N-(4-(3-aminopyrrolidin-1-yl)-1,2-dimethyl-1H-benzo[d]imidazol-5-yl)-1-(2-fluoro-6-methoxyphenyl)-6-oxo-1,6-dihydropyridazine-3-carboxamide] was run?
**A.** The IC50 was < 0.1 µM.

**Q.** `CC(C)n1ncc2c(N3C[C@@H]4[C@@H](N)[C@@H]4C3)c(NC(=O)c3ccc(=O)n(-c4c(F)cccc4F)n3)ccc21` [Example 211, N-(4-((1R,5S,6s)-6-amino-3-azabicyclo[3.1.0]hexan-3-yl)-1-isopropyl-1H-indazol-5-yl)-1-(2,6-difluorophenyl)-6-oxo-1,6-dihydropyridazine-3-carboxamide] was tested. Which IC50 did it give?
**A.** The IC50 was < 0.1 µM.

**Q.** Which IC50 does the source give for `CO[C@@H]1CN(c2c(NC(=O)c3ccc(=O)n(-c4c(F)cccc4F)n3)ccc3c2cnn3C(C)C)C[C@H]1N` [Example 201, N-(4-((35,4S)-3-amino-4-methoxypyrrolidin-1-yl)-1-isopropyl-1H-indazol-5-yl)-1-(2,6-difluorophenyl)-6-oxo-1,6-dihydropyridazine-3-carboxamide] here?
**A.** Its IC50 is < 0.1 µM.

**Q.** `CC(C)(C)n1ncc2c(N3C[C@H](N)C4(CC4)C3)c(NC(=O)c3ccc(=O)n(-c4c(F)cccc4F)n3)ccc21` [Example 302, N-[4-[(7R)-7-amino-5-azaspiro[2.4]heptan-5-yl]-1-tert-butyl-indazol-5-yl]-1-(2,6-difluorophenyl)-6-oxo-pyridazine-3-carboxamide] was tested. Which IC50 did it give?
**A.** The IC50 was < 0.1 µM.

**Q.** How did the IC50 turn out when `CN[C@@H]1CCN(c2c(NC(=O)c3ccc(=O)n(-c4c(F)cccc4F)n3)ccc3c2nc(C(C)C)n3C)C1` [Example 127, (R)-1-(2,6-difluorophenyl)-N-(2-isopropyl-1-methyl-4-(3-(methylamino)pyrrolidin-1-yl)-1H-benzo[d]imidazol-5-yl)-6-oxo-1,6-dihydropyridazine-3-carboxamide] was run?
**A.** Its IC50 is < 0.1 µM.

**Q.** How did the IC50 turn out when `Cn1c(C(C)(C)C)nc2c(N3CC[C@@](C)(N)C3)c(NC(=O)c3ccc(=O)n(-c4c(F)cccc4F)n3)ccc21` (single isomer, unassigned) [Example 100, ®-N-(4-(3-amino-3-methylpyrrolidin-1-yl)-2-(tert-butyl)-1-methyl-1H-benzo 111 midazolezol-5-yl)-1-(2,6-difluorophenyl)-6-oxo-1,6-dihydropyridazine-3-carboxamide] was run?
**A.** Its IC50 is < 0.1 µM.

**Q.** `CC(C)(C)n1cc2c(N3CCC[C@@H](N)C3)c(NC(=O)c3ccc(=O)n(-c4c(F)cccc4F)n3)ccc2n1` [Example 239, (R)-N-(4-(3-aminopiperidin-1-yl)-2-(tert-butyl)-2H-indazol-5-yl)-1-(2,6-difluorophenyl)-6-oxo-1,6-dihydropyridazine-3-carboxamide] was tested. Which IC50 did it give?
**A.** The IC50 was < 0.1 µM.

**Q.** With `CC1(C)CN(c2c(NC(=O)c3ccc(=O)n(-c4c(F)cccc4F)n3)ccc3c2cnn3[C@H]2CCOC2)C[C@H]1N` [Example 270, N-(4-((S)-4-amino-3,3-dimethylpyrrolidin-1-yl)-1-((S)-tetrahydrofuran-3-yl)-1H-indazol-5-yl)-1-(2,6-difluorophenyl)-6-oxo-1,6-dihydropyridazine-3-carboxamide] as the compound, how does the IC50 read?
**A.** Its IC50 is < 0.1 µM.

**Q.** For `C[C@H]1CN(c2c(NC(=O)c3ccc(=O)n(-c4c(F)cccc4F)n3)ccc3nn([C@@H]4CCOC4)cc23)C[C@@H]1N` [Example 326, N-(4-((3R,4S)-3-amino-4-methylpyrrolidin-1-yl)-2-((R)-tetrahydrofuran-3-yl)-2H-indazol-5-yl)-1-(2,6-difluorophenyl)-6-oxo-1,6-dihydropyridazine-3-carboxamide], which IC50 is on record?
**A.** The IC50 was < 0.1 µM.
